In patent US7355074B2, “Compounds having aromatic rings and side-chain amide-functionality and a method for transporting monovalent anions across biological membranes using the same” (The University of Maryland, priority 2003, dated 2008):
Marks after values point to notes of the source that are not given here.

Key:
[1] = 1H NMR binding experiment in CDCl3, HCl extraction
Protocol: FIG. 7 illustrates a series of […] spectra (400 mHz, CDCl3, 22° C.) of calixarene tetrabutylamide in the presence of different species: (A) the compound alone (5 mm); (B) the compound with 1 equiv. of Bu4 NCl; (C) the compound after washing CDCl3 solution of the compound with an aqueous solution of 0.5 m HCl; (D) after washing CDCl3 solution of the compound with an aqueous solution of 0.5 M H2SO4.
To obtain evidence for Cl^− binding by 2, ^1H NMR experiments were run in CDCl3 using n-Bu4-NCl and HCl as Cl^− sources. Anion receptors usually show chemical shift perturbation upon anion complexation, particularly for amide NH protons that hydrogen bond to the anion. […] Calix[4]arene tetrabutylamide 2 does, however, bind HCl. Thus, shaking a CDCl3 solution of 2 with aqueous HCl led to disappearance of the amide NH proton and a significant upfield shift of the […] protons (FIG. 4c).

[2] = pH-assisted fluorimetric transport assay with calixarene amides (HPTS-loaded liposomes); type: biochemical
Protocol: The ability of 1 and 2 to mediate ion flux across a lipid bilayer was studied fluorimetrically. A solution of 1 or 2 was added to a suspension of EYPC large unilamellar vesicles (LUVs) containing the pH-sensitive dye pyranine. An NaOH solution was added to the extravesicular buffer to create a gradient of approximately one pH unit. The resulting electrostatic potential, caused by proton efflux from the liposomes, can be compensated by cation influx or anion efflux, as mediated by the exogenous ligand. Ion transport across the membrane was signaled by the increase in relative fluorescence that accompanied the rise in intravesicular pH.
Liposome Preparation. EYPC HPTS-Containing LUVs, egg yolk 1-α-phosphatidylcholine (EYPC, 60 mg, […]) was dissolved in a CHCl3MeOH mixture, the solution was evaporated under reduced pressure, and the resulting thin film was dried under high vacuum for 2 h. The lipid film was hydrated in 1.2 mL of phosphate buffer (10 mM sodium phosphage, pH=6.4, 75-100 mM MX, M=Na^+, K^+, Cs^+, X=[…], SO4^2−) containing 10 μM HPTS (pyranine 8-hydroxypyrene-1,3,6-trisulfonic acid trisodium salt) for 2 h. The LUV suspension (1 mL) was submitted to high-pressure extrusion at room temperature (2) extrusions through a 0.1 μM polycarbonate membrane afforded LUVs with a diameter of 100 nm). The LUV suspension was separated from extravesicular dye by size exclusion chromatography (SEC) stationary phase: Sephadex G-10, mobile phase:phosphate buffer) and diluted with the same phosphate buffer to give a stock solution with a lipid concentration of 11 mM (assuming 100% of lipid was incorporated into liposomes).
Fluorimetric Transport Assays. pH-Assisted Transport Assays. Typically, 100 μL of HPTS-loaded vesicles (stock solution) was suspended in 1.85 mL of the corresponding buffer and placed into a fluorimetric cell. HPTS emission at 510 nm was monitored with excitation wavelengths at 403 and 460 nm simultaneously. During the experiment, 20 μL of a 0-10 mM THF solution of the compound of interest was added through an injection port, followed by injection of 21 μL of 0.5 M aqueous NaOH. Addition of the NaOH caused a pH increase of approximately 1 pH unit in the extravesicular buffer. Maximal changes in dye emission were obtained at the end of each experiment by lysis of the liposomes with detergent (40 μL of 5% aqueous Triton x100). The final transport trace was obtained as a ratio of the emission intensities monitored at 460 and 403 nm and normalized to 100% of transport.

[3] = pH-stat fluorescent transport assay with oligophenoxyacetamides (HPTS-loaded liposomes); type: biochemical; conditions: 100 mM NaCl inside and outside; 50 μm (10 mol % ligand to lipid ratio)
Protocol: FIGS. 1A and 1B are derived from of pH-stat fluorescent assays with oligophenoxyacetamide compounds 1-6 described herein. Suspensions of EYPC LUVs containing the pH sensitive dye pyranine (ex 405 nm and 460 nm em 510 nm) in a phosphate buffer were used (0.5 mM of lipid, 10 mM NanH3-nPO4 n=1, 2, pH 6.4 100 mM NaCl inside and outside) (A) illustrates initial pseudo-first order rate constants in the presence of 5 μm of ionophores 1-6 (1 mol % injection of 20 μl of 0.5 mM DMSO solution of 1-6 into 1.9 mL of vesicular suspension was followed by injection of 21 μl of 0.5 M NaOH and final lysis of liposomes with Triton X-100; (B) illustrates initial pseudo-first order rate constants assessed for various concentrations of oligomeric ionophores 2-6. The same experimental protocol as in (A) was used. Legend for traces denotes use of oligocompounds 2, 3, 4, 5, 6.
Liposome Preparation for Fluorimetric Assays. Egg yolk L-α-phosphatidylcholine (EYPC ethanol solution, […], 79 μmol) was dissolved in a CHCl3/MeOH mixture, the solution was evaporated under reduced pressure and the resulting thin film was dried under high vacuum for 2 h. The lipid film was hydrated in 1.2 mL of phosphate buffer (10 mM sodium phosphate, pH=6.4, 75-100 mM MnX, M=N^+, K^+, X=Cl^−, SO4^2−, n=1,2) containing 10 μM HPTS (pyranine, 8-hydroxypyrene-1,3,6-trisulfonic acid trisodium salt) for 40 min. During hydration, the suspension was submitted to 5 freeze-thaw cycle (liquid nitrogen, water at rt). The large multilamellar liposome suspension (1 mL) was submitted to high-pressure extrusion at rt (21 extrusions through a 0.1 μm polycarbonate membrane afforded a suspension of LUVs with an average diameter of 100 nm). The LUV suspension was separated from extravesicular dye by size exclusion chromatography (SEC) (stationary phase: Sephadex G-10, mobile phase: phosphate buffer) and diluted with the same phosphate buffer to give a stock solution with a lipid concentration of 11 mM (assuming 100% of lipid was incorporated into liposomes).
pH-state transport assays. Typically, 100 μL of HPTS-loaded vesicles (stock solution) was suspended in 1.9 mL of the corresponding buffer and placed into a fluorimetric cell. The emission of HPTS at 510 nm was monitored with excitation wavelengths at 403 and 460 nm simultaneously. During the experiment, 20 μL of a 0-10 mM DMSO solution of the compounds of interest was added (through an injection port), followed by injection of 21 μL of 0.5 M aqueous NaOH. […] Maximal possible changes in dye emission were obtained at the end of each experiment by lysis of the liposomes with detergent (40 μL of 5% aqueous Triton X100). The final transport trace was obtained as a ratio of the emission intensities monitored at 460 and 403 nm and normalized to 100% of transport. Pseudo-first order rate constants were calculated from slopes of the plot of In([H^+ins]−[H^+out]) versus time, here [H^+ins] and [H^+out] are the intravesicular and extravesicular proton concentrations, respectively. The [H^+out] was assumed to remain constant over the course of the experiment, while [H^+ins] values were calculated for each point from the HPTS emission intensities according to the calibration equation pH=1.1684·log(Io/Il)+6.9807, where Io is the emission intensity with excitation at 460 nm and Il is emission intensity with excitation at 403 nm. The calibration was performed by measuring the HPTS emission intensities and the pH values of a […] HPTS solution in 10 mM phosphate buffer containing 100 mM NaCl (see FIG. s3). The absolute values for rate constants varied depending on the age of the vesicular solution and the actual stock solution of liposomes used.

[4] = intravesicular pH of LUVs experiencing a Cl- gradient (calixarene amides); type: biochemical; conditions: NaCl-loaded LUVs in isosmotic Na2SO4 buffer
Protocol: FIG. 8 illustrates changes in intravesicular pH upon addition of calixarene tetrabutylamide and calixarene octabutylamide to NaCl^+ loaded vesicles suspended in a sulfate phosphate buffer (emission of HPTS is used to monitor the pH changes in LUVs). At t=60 s, 20 μL of 500 μM of calixarene tetrabutylamide 2 (top trace) or the octabutylamide 3 (bottom trace) was added to 1.95 mL of a LUV suspension to give 1:100 ligand:lipid molar ratio. At t=500 s, 40 μL of 5% Triton X-100 was added. Intravesicular pH values were obtained as a function of the ratio of HPTS emission intensities at 510 nm, when excited at […]. The calibration was performed by measuring the HPTS emission intensities and the pH values of a […] HPTS solution in 10 mM phosphate buffer containing 100 mM NaCl. The calibration equation obtained (pH=1.1684×log (I0I1)+6.9807, r=0.998, where I0 is the emission intensity with excitation at […]) was used to convert the emission intensities into actual pH values.
The pH reached its maximum 250 s after addition of 2 and held constant until the liposomes were lysed with detergent. […] In effect, compound 2 moves […] along with Cl^− down the chloride gradient, consequently building a pH gradient across the membrane. Therefore, NaCl filled vesicles lose Cl^− and H^+ upon addition of 2 and become more alkaline.
Calcein-Release Assay. Calcein-loaded vesicles (100 μL of the stock solution), filled with a saline phosphate buffer (10 mM sodium phosphate, pH 6.4, […] NaCl), were suspended in 1.85 mL of an isoosmotic phosphate sulfate buffer (10 mM sodium phosphate, pH 6.4^−75 mM (Na2SO4) and placed into a fluorimetric cell. HPTS emission at 510 nm was monitored with excitation wavelengths at 403 and 460 nm simultaneously. During the experiment, 20 μL of a 0-500 μM THF solution of the compound of interest was added through an injection port. Intravesicular pH values were obtained as a function of the ratio of HPTS emission intensities at 510 nm, when excited at 403 and 460 nm. […]

SMILES	HCl binding [1]	ion transport ([2]; 50 μM)	transport activity [3]	change of intravesicular pH / pH gradient formation [4]	drop in rate constant on changing extravesicular electrolyte from NaCl to CsCl [2] [fold]	transport activity when buffer changed from NaCl to Na2SO4 [2]	Initial Pseudo-first Order Transport Rate Constants, Na2SO4 ([2]; 5 μM, 100 mM Na2SO4 inside pH 6.4 and outside pH 7.4, not corrected for unmediated exchange)	Initial Pseudo-first Order Transport Rate Constants, CsCl ([2]; 5 μM, 100 mM NaCl inside pH 6.4, 100 mM CsCl outside pH 7.4, not corrected for unmediated exchange)	Initial Pseudo-first Order Transport Rate Constants, KCl ([2]; 5 μM, 100 mM NaCl inside pH 6.4, 100 mM KCl outside pH 7.4, not corrected for unmediated exchange)	Initial Pseudo-first Order Transport Rate Constants, NaCl ([2]; 5 μM, 100 mM NaCl inside pH 6.4, 100 mM NaCl outside pH 7.4, not corrected for unmediated exchange)	rate constant k of ion transport ([2]; Na2SO4 loaded vesicles in isotonic buffer) [s⁻¹]	rate constant k of ion transport ([2]; NaCl buffer) [s⁻¹]	cation selectivity of ion transport ([2]; buffers containing Na, K or Cs)
CCCCNC(=O)COc1ccccc1 [Monomer 1, N-butyl-2-phenoxyacetamide]	no HCl binding	no ion transport	some activity										
CCCCN(CCCC)C(=O)COc1c2cccc1Cc1cccc(c1OCC(=O)N(CCCC)CCCC)Cc1cccc(c1OCC(=O)N(CCCC)CCCC)Cc1cccc(c1OCC(=O)N(CCCC)CCCC)C2 [calix[4]arene octabutylamide 3, Calix[4]arene Octabutylamide]				did not result in formation of a pH gradient	3.5	still mediated significant ion transport	9.1^b,d ×10^−3 s^−1	5.4^b,c ×10^−3 s^−1	12^b,c ×10^−3 s^−1	19^b,c ×10^−3 s^−1	0.0091	0.019	discriminates between monovalent cations
